In US12128068B2, “Compositions and methods for dental mineralization” (The University of Melbourne, priority 2013, dated 2024):

Assay: Remineralization of enamel subsurface lesions (transverse microradiography and densitometric image analysis)
Parameters: species or system Human
Details: 1% v/v sodium hypochlorite for 1 min at start of CPP-ACP remineralization, versus CPP-ACP alone
Experimental: Human tooth enamel demineralized subsurface lesions were prepared using the method of Reynolds, (1997). J Dent Res 76:1587-1595. The enamel surface was removed by polishing to remove all adsorbed protein. This removed around 50-100 μm of enamel to expose an uncoated, polished enamel surface for the study. […] A 1% w/v CPP-ACP pH 5.0 solution was prepared using Recaldent® [Kraft Foods], a commercial source of CPP-ACP that is prepared as per Example 1 at a pH of 5.0. All blocks were remineralized with the 1% CPP-ACP pH 5 solution for 7 days at 37° C. However, half were exposed to a 1% v/v sodium hypochlorite solution for 1 min at the start of the CPP-ACP remineralization period. In other words, the sodium hypochlorite and CPP-ACP were simultaneously exposed to the subsurface lesion. After remineralization the enamel blocks were embedded, sectioned and subjected to transverse microradiography and densitometric image analysis as previously described by Reynolds (1997) to determine percent mineral content gain (% Remineralization) shown in Table 3.

SMILES: OCl [hypochlorite, sodium hypochlorite]
- increase of the level of remineralization by the CPP-ACP solution: 31%
